In ChEMBL document CHEMBL1158721, “Brasilibactin A, a cytotoxic compound from actinomycete Nocardia brasiliensis” (J Nat Prod, 2005) one finds IC50 and Activity data, which are given here for 1 molecule.

≈ marks a conversion by molar mass, not a printed value.

As usually defined, the IC50 is the concentration that inhibits the measured activity by half. A lower IC50 goes with greater potency in that assay.

Common to all, as to type: functional, cell-based
One test concerns KB. Description: Cytotoxicity against human KB cells.
A further test concerns HL-60. The test is described as follows: Induction of apoptosis in human HL60 cells assessed as increase in caspase3 activity.
The subject of another test is L1210. Description: Cytotoxicity against mouse L1210 cells.

Take `CCCCCCCCCCCCCCC[C@H](OC(=O)[C@@H](CCCCN(O)C=O)NC(=O)[C@H]1COC(c2ccccc2O)=N1)[C@@H](C)C(=O)N[C@@H]1CCCCN(O)C1=O` [BRASILIBACTIN A]: the values for the IC50 with KB and in the test with L1210 were 0.04 mg/L (≈ 0.0499 µM) and 0.02 mg/L (≈ 0.0249 µM), respectively. Moreover, the Activity result in the test on HL-60 is “Dose-dependent effect”.
